Reference: publication PMC3293179 (MedChemComm, 2011)
One block for each molecule: values may come before it.

Columns and labels:
FSHR = molecular target: T1, FSHR (Homo sapiens, UniProt P23945); assay: Selectivity test against FSHR; assay type: cell-based
T1 sequence (P23945 18-695): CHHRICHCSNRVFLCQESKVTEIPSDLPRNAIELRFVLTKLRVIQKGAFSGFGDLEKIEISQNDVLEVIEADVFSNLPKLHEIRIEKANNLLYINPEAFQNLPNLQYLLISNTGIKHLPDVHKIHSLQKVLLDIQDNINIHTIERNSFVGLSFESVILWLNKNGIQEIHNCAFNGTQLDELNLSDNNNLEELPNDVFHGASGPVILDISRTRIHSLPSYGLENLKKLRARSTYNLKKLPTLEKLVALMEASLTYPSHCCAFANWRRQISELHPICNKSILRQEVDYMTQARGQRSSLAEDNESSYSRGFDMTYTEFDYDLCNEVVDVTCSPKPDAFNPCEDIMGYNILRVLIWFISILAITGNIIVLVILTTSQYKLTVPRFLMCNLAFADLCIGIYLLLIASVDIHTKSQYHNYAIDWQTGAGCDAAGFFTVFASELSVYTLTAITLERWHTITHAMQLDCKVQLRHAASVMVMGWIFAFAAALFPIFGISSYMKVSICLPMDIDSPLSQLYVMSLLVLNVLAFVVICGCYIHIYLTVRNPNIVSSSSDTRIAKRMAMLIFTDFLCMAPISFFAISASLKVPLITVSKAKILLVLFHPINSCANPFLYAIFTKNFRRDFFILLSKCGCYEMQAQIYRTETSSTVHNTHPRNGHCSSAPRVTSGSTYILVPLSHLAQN

LHR = LHR (Homo sapiens, UniProt P22888); assay: Selectivity test against LHR; assay type: cell-based
TSHR [1] = molecular target: T2, TSHR (Homo sapiens, UniProt P16473); conditions: cited from earlier work
TSHR [2] = conditions: mice; cited from earlier work
[3] = degradation at pH = 2; cited from earlier work
TSHR [4] = molecular target: T2, TSHR; assay: ELISA cAMP assay in HEK-EM293 cells expressing TSHR; assay type: cell-based; conditions: for fold more potent than the hit compound 1a: potency ratio versus 1a

Chain of LHR (P22888 27-699): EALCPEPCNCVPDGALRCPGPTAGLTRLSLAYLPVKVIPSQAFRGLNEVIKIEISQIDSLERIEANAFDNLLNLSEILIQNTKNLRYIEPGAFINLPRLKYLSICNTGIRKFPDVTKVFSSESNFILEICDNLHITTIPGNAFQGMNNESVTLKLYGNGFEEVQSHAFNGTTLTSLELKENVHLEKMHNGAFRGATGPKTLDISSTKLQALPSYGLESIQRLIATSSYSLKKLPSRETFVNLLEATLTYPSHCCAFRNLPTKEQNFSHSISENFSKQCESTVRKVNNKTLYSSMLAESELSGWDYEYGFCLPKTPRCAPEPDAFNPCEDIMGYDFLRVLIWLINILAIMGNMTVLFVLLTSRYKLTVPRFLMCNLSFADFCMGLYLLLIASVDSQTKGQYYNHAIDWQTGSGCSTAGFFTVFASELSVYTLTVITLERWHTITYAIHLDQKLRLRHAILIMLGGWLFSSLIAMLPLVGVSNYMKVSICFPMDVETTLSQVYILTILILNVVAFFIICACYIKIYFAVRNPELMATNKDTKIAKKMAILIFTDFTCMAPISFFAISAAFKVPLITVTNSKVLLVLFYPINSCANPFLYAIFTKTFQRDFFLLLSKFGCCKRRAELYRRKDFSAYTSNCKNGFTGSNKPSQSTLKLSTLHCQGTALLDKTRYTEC
T2 sequence (P16473 21-764): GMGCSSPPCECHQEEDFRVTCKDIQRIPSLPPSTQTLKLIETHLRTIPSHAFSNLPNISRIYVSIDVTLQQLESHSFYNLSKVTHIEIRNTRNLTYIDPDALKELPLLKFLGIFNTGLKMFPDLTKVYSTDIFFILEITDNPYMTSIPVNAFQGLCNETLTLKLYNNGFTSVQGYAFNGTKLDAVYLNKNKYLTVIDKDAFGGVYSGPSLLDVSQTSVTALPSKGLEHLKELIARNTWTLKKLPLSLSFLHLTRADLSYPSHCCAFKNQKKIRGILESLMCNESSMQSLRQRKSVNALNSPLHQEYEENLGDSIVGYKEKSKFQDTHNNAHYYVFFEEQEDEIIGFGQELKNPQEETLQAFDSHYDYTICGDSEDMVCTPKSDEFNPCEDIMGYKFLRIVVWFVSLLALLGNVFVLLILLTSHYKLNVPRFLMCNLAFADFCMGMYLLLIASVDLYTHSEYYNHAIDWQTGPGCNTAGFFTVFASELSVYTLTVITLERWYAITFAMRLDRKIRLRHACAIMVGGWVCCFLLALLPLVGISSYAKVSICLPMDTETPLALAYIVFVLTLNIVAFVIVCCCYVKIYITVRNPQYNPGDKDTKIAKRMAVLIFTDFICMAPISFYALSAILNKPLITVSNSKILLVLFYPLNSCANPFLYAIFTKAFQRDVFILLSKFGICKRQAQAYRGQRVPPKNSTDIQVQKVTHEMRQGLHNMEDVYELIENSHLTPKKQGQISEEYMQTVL

- Emax (TSHR [4]; HEK-EM293): 100%
- fold improvement in potency (TSHR [4]; R2 OH versus H (1g) or F (1e)): 3 fold
- fold more potent than the hit compound 1a (TSHR [4]): at least 10 fold
SMILES: COc1ccc(C2Nc3cccc(O)c3C(=O)N2Cc2ccccc2)cc1COc1ccc(NC(C)=O)cc1 (stereo not shown) [Compound 1b]
- TSHR agonism (type) (TSHR [1]): full TSHR agonist
- in vivo efficacy (TSHR [2]): in vivo efficacy in mice
- half-life [3]: 3 h

- fold more potent than the hit compound 1a (TSHR [4]): 4 fold
SMILES: COc1ccc(C2Nc3ccccc3C(=O)N2Cc2ccccc2)cc1COc1ccc(NC(C)=O)cc1 (stereo not shown) [Compound 1g]

- fold increase in potency (TSHR [4]; Y oxygen replaced with sulfur (8b vs 1b, 8a vs 1g)): ≤ 5 fold
SMILES: COc1ccc(C2Nc3cccc(O)c3C(=O)N2Cc2ccccc2)cc1CSc1ccc(NC(C)=O)cc1 (stereo not shown) [Compound 8b]
- selectivity for TSHR over FSHR (FSHR): maintain selectivity for TSHR over LHR and FSHR
- selectivity for TSHR over LHR (LHR): maintain selectivity for TSHR over LHR and FSHR

- selectivity for TSHR over FSHR (FSHR): selective for TSHR over LHR and FSHR
- selectivity for TSHR over LHR (LHR): selective for TSHR over LHR and FSHR
SMILES: COc1ccc(-c2nc3cccc(O)c3c(=O)n2Cc2ccccc2)cc1COc1ccc(NC(C)=O)cc1 [Compound 9c]

Continued, molecule first:

SMILES: COc1ccc(C2Nc3ccccc3C(=O)N2Cc2ccco2)cc1COc1ccc(NC(C)=O)cc1 (stereo not shown) [Compound 1a]
- FSHR efficacy (FSHR): no detectable
- LHR efficacy (LHR): no detectable

SMILES: COc1ccc(C2Nc3ccccc3C(=O)N2CCc2ccccc2)cc1COc1ccc(NC(C)=O)cc1 (stereo not shown) [Compound 1m]
- fold reduction in potency (TSHR [4]; versus benzyl analogue 1g): 2 fold

SMILES: COc1ccc(C2Nc3ccccc3C(=O)N2Cc2ccccc2)cc1CSc1ccc(NC(C)=O)cc1 (stereo not shown) [Compound 8a]
- fold more potent than the hit compound 1a (TSHR [4]): at least 10 fold
